IC50 data for four molecules are collected here from patent US20030088061A1, “Materials and methods to modulate ligand binding/enzymatic activity of alpha/beta proteins containing an allosteric regulatory site” (priority 2000, published 2003).

The structures appear in SMILES notation. Read-outs that look alike come from different tables or passages of the source.

This test has as its target T1, αEβ7 (Homo sapiens, UniProt P26010+P38570).
T1 construct: DNA encoding full-length alpha E was identified as follows; expressed in transfected cells; host or cells: JY cells, plasmid pMHneo/aE
T1 sequence (P38570 19-1179): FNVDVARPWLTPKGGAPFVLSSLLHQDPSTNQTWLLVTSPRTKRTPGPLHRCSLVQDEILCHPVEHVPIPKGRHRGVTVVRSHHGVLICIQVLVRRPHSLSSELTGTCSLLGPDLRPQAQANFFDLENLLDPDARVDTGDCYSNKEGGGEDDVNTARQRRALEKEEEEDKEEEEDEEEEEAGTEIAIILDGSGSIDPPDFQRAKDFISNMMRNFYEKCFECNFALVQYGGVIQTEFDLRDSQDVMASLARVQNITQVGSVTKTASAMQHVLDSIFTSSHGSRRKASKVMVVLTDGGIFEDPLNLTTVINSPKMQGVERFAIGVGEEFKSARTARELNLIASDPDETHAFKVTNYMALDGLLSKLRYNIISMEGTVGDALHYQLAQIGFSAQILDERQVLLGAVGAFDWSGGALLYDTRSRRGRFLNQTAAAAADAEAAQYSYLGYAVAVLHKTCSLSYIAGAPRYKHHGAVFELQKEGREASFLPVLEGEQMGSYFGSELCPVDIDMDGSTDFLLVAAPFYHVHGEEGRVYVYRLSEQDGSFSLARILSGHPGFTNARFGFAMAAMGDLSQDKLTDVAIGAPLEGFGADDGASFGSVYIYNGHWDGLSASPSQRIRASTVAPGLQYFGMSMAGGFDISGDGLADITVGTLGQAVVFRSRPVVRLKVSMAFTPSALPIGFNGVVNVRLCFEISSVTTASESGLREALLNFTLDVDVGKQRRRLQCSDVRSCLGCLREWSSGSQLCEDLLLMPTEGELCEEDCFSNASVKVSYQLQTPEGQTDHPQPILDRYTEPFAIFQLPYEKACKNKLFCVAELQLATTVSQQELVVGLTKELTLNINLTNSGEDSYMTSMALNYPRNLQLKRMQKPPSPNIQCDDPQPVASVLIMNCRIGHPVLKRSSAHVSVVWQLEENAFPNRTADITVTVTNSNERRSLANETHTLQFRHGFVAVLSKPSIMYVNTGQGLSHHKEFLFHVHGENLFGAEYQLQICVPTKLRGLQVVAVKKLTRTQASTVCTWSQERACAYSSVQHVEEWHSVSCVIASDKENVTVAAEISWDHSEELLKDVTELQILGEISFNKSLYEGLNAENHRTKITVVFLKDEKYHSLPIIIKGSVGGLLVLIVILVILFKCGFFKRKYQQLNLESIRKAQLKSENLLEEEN
T1 sequence (P26010 20-798 partner): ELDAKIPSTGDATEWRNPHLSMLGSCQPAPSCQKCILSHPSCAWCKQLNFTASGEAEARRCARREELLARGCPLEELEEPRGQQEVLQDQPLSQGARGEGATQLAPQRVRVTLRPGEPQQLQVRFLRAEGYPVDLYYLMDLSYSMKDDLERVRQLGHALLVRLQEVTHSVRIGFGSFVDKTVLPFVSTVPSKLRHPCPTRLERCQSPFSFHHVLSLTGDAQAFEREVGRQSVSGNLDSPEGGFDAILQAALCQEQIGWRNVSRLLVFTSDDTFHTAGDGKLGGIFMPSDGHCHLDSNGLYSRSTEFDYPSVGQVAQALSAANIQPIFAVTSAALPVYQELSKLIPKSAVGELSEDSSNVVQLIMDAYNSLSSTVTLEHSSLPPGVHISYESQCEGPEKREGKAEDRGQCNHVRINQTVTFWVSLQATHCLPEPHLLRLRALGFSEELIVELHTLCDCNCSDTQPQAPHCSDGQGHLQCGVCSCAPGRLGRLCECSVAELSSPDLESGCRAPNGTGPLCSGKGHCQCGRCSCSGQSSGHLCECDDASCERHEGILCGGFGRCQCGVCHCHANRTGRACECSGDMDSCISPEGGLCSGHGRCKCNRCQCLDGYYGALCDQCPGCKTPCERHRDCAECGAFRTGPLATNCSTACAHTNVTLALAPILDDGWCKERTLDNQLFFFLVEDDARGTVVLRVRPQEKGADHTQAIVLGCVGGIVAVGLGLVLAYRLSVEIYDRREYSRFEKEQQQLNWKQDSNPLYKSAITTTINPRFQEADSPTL
The experiment in a line: JY/aE+ cell adhesion to E-cadherin/Ig. Format: cell-based. The protocol:
Adhesion media (350 μl) (RPMI 1640 containing penicillin and streptomycin, L-glutamine, NaPy, and 5% FBS) was aliquotted into each well in rows A, C, E, G of a deepwell 96-well titer plate, 2.0 ml capacity (Beckman Instruments, Inc., Fullerton, Calif.) in columns 1-11. All compounds to be screened were dissolved in DMSO to a final concentration of 10 mM. Compounds were stored at −20° C., and thawed on the day of use in a 37° C. incubator. Each compound (2.1 μl) was pipetted into a single well in columns 3-11, rows A, C, E, and G in the deepwell titer plate. To wells not containing compound (A1 & A2, C1 & C2, E1 & E2, G1 & G2), 2.1 μl DMSO was added. An anti-β7 monoclonal antibody, FIB504 (ATCC, Rockville, Md.), which blocks αEβ7 binding activity, was added to wells C2 and G2 at a concentration of 7.5 μg/ml. Each deepwell titer plate was covered to prevent dessication and stored in a 37° C. incubator until ready for use.
Adhesion assays were performed in 96-well Immunlon 4 plates (Dynex Technologies, Inc., Chantilly, Va.) as follows. Each well was coated with 50 μl E-cadherin/Ig (3.0 μg/ml) in D-PBS. Control wells were coated with capture antibody FIB504, to quantitate 100% input cell binding, or coating buffer alone to determine background binding. Following an overnight incubation at 4° C., the plates were washed three times with 200 μl/well D-PBS and blocked with 1% BSA in D-PBS for at least 1 hour. The BSA solution was removed and 100 μl of adhesion media (RPMI 1640 containing penicillin and stretomycin, L-glutamine, sodium pyruvate, 0.1% BSA, and 60 ng/ml PMA), was added to rows B through G, columns 1 through 11.
At this point, 100 μl adhesion media containing a test compound at a concentration of 60 μM, was transferred from the deepwell 96-well titer plate, in triplicate, to the E-cadherin/Ig coated adhesion plate. The outer rows were filled with 300 μl of D-PBS. These plates were transferred to a humidified 37° C. incubator with an atmosphere of 5% CO2.
The adhesion assay was initiated by addition of 100 μl of the JY/aE^+ cell suspension to each well of the E-cadherin-coated plate. The final volume in each well was 300 μl adhesion media containing […], PMA (final concentration 20 ng/ml), and the test compound (final concentration 20 μM). The plates were incubated at 37° C. for 30 min. Each compound was tested in triplicate.
Adherent cells were fixed by the addition of 50 μl of a 14% glutaraldehyde solution in D-PBS. Plates were washed with water, stained with 100 μl/well 0.5% crystal violet (Sigma Corp., St. Louis, Mo.) solution for 5 min. Three hundred microliters/well of 70% ethanol was added, and adherent cells were quantitated by determining absorbance at 570 nm. Percentage of cell binding was determined by using the mean values for each triplicate in a given assay in the following formula. [formula]
During the initial screening of test compounds, each chemical entity was tested in cell-based adhesion assays at a fixed concentration of 20 μM. Those compounds that blocked JY/αEβ7-dependent adhesion to E-cadherin/Ig by 50% or more were subsequently retested at multiple concentrations to determine the inhibitory concentration at which cell binding is reduced by 50%, i.e., the IC50 value.
For each IC50 assay, 50 μl of the ligand diluted in 50 mM bicarbonate buffer (pH 9.6) was dispensed per well of an Immulon-4 plate. A single plate was used to test two different ligands, each in triplicate, The coating concentration for the various ligands was as follows: VCAM-1/Ig at 2.0 μg/ml; ICAM-1/Ig at 5.0 μg/ml; vitronectin at 0.5 μg/ml; MAdCAM-1/Ig at 3.0 μg/ml, and iC3b at 5.0 μg/ml. The capture antibody, e.g. anti-CD18 monoclonal antibody TS1/22, was added at a concentration of 10 μg/ml in 50 μl/well. Ligand-coated plates were covered and stored overnight at 4° C. The following day, the contents of each well was decanted, and each plate was washed three times with 200 μl/well D-PBS. […]

Setting [1] is: PMA-treated JY cells, read-out: E-cadher αEβ7 IC50.
Where [2] appears, read: reproducible inhibitory activity on re-analysis, read-out: IC50, inhibition of JY/aE+ binding to E-cadherin.

In the case of `CC(=O)Oc1ccccc1C(=O)n1c(-c2ccccc2)cc2ccccc21` [Cmpd D], the IC50 was 3 µM under setting [1] and < 10 µM under setting [2].

Regarding `O=C(NCc1cccnc1)c1ccccc1C(=O)Nc1sc2ccccc2c1Cl` [Cmpd K], the IC50 was 3 µM under setting [1] and < 10 µM under setting [2].

As to `Nc1ccc(Sc2ccc(NC(=O)CCc3ccccc3)cc2)c(Cl)c1` [Cmpd W], the IC50 under setting [1] turned out to be 5 µM and the IC50 under setting [2] was < 10 µM.

Regarding `CC(CN(C)C)NCc1ccccc1Sc1ccc(C(C)(C)C)cc1` (centres unmarked) [Cmpd Z], the IC50 reads like this: under setting [1], 3 µM; under setting [2], < 10 µM.
